The target of experiment [1] is T1, T315I Abl kinase (SEQ ID NO:2) (Homo sapiens, UniProt P00519, T315I).
T1 construct: purchased deCode Genetics
T1 sequence (P00519 with tags, fused parts or gaps T315I): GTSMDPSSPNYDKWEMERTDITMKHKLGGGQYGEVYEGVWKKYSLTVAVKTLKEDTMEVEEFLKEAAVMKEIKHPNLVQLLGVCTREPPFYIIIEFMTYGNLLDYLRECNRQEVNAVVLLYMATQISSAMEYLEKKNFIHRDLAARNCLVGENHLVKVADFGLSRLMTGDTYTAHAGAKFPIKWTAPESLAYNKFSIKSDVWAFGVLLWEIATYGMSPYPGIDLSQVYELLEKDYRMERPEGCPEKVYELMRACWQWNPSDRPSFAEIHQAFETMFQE
As to the kind of experiment: T315I Abl kinase (SEQ ID NO:2) assay, pyruvate kinase/lactate dehydrogenase coupled. The following applies: 1 h preincubation, ATP 500 μM; read-out: Biochemical IC50, Abl T315I Enzyme Assay. The protocol: Abl Kinase (SEQ ID NO:2) Assay
Activity of T315I Abl kinase (SEQ ID NO:2) was determined by following the production of ADP from the kinase reaction through coupling with the pyruvate kinase/lactate dehydrogenase system (e.g., Schindler, et al. Science (2000) 289, 1938-1942). In this assay, the oxidation of NADH (thus the decrease at A340 nm) was continuously monitored spectrophometrically. The reaction mixture (100 μl) contained Abl kinase (4.4 nM, […] Abl from deCode Genetics), peptide substrate (EAIYAAPFAKKK, 0.2 mM), MgCl2 (10 mM), pyruvate kinase (4 units), lactate dehydrogenase (0.7 units), phosphoenol pyruvate (1 mM), and NADH (0.28 mM) in 90 mM Tris buffer containing 0.2% octyl-glucoside and 1% DMSO, pH 7.5. Test compounds were incubated with T315I Abl (SEQ ID NO:2) and other reaction reagents at 30° C. for 1 h before ATP (500 μM) was added to start the reaction. The absorption at 340 nm was monitored continuously for 2 hours at 30° C. on Polarstar Optima plate reader (BMG). The reaction rate was calculated using the 1.0 to 2.0 h time frame. Percent inhibition was obtained by comparison of reaction rate with that of a control (i.e. with no test compound). IC50 values were calculated from a series of percent inhibition values determined at a range of inhibitor concentrations using software routines as implemented in the GraphPad Prism software package.

Experiment [2] has as its target T2, BaF3 cells transfected with T315I p210 BCR-Abl (Homo sapiens, UniProt P00519, T315I, cells depend on it).
T2 construct: fused on or other part: P11274 (Breakpoint cluster region protein)
Kind of experiment: Ba/F3 p210 T315I whole cell proliferation assay. It is filed as cell-based. The settings on record: 72 hours, Cell Titer Blue; read-out: Whole Cell Antiproliferation IC50, Ba/F3 p210 T315I whole cell proliferation assay. The protocol: (§1) BaF3 cells (parental or transfected with the following: wild type p210 BCR-Abl and T315I p210 BCR-Abl was obtained from Professor Richard Van Etten (New England Medical Center, Boston, Mass.). Briefly, cells were grown in RPMI 1640 supplemented with 10% characterized fetal bovine serum (HyClone, Logan, Utah) at 37 degrees Celsius, 5% CO2, 95% humidity. Cells were allowed to expand until reaching 80% saturation at which point they were subcultured or harvested for assay use.
(§2) A serial dilution of test compound was dispensed into a 96 well black clear bottom plate (Corning, Corning, N.Y.). For each cell line, three thousand cells were added per well in complete growth medium. Plates were incubated for 72 hours at 37 degrees Celsius, 5% CO2, 95% humidity. At the end of the incubation period Cell Titer Blue (Promega, Madison, Wis.) was added to each well and an additional 4.5 hour incubation at 37 degrees Celsius, 5% CO2, 95% humidity was performed. Plates were then read on a BMG Fluostar Optima (BMG, Durham, N.C.) using an excitation of 544 nm and an emission of 612 nm. Data was analyzed using Prism software (Graphpad, San Diego, Calif.) to calculate IC50's.
(In general: The colour change of resazurin is a common sign of viable cells or microbes.)

In experiment [3] the target is T3, Abl kinase (SEQ ID NO: 1) (Homo sapiens, UniProt P00519).
T3 construct: purchased deCode Genetics
T3 sequence (P00519 with tags, fused parts or gaps): T1 sequence (P00519 with tags, fused parts or gaps T315I) with I94T
Kind of experiment: Abl kinase (SEQ ID NO:1) assay, pyruvate kinase/lactate dehydrogenase coupled. The following applies: 2 h preincubation, ATP 500 μM; read-out: Biochemical IC50, Abl Enzyme Assay. How it is done:
Abl Kinase (SEQ ID NO:1) Assay
Activity of Abl kinase (SEQ ID NO: 1) was determined by following the production of ADP from the kinase reaction through coupling with the pyruvate kinase/lactate dehydrogenase system (e.g., Schindler, et al. Science (2000) 289, 1938-1942). In this assay, the oxidation of NADH (thus the decrease at A340 nm) was continuously monitored spectrophometrically. The reaction mixture (100 μl) contained Abl kinase (1 nM. Abl from deCode Genetics), peptide substrate (EAIYAAPFAKKK, 0.2 mM), MgCl2 (10 mM), pyruvate kinase (4 units), lactate dehydrogenase (0.7 units), phosphoenol pyruvate (1 mM), and NADH (0.28 mM) in 90 mM Tris buffer containing 0.2% octyl-glucoside and 3.5% DMSO, pH 7.5. Test compounds were incubated with Abl (SEQ ID NO:1) and other reaction reagents at 30° C. for 2 h before ATP (500 μM) was added to start the reaction. The absorption at 340 nm was monitored continuously for 2 hours at 30° C. on Polarstar Optima plate reader (BMG). The reaction rate was calculated using the 1.0 to 2.0 h time frame. Percent inhibition was obtained by comparison of reaction rate with that of a control (i.e. with no test compound). IC50 values were calculated from a series of percent inhibition values determined at a range of inhibitor concentrations using software routines as implemented in the GraphPad Prism software package.

Experiment [4] concerns the target T4, BaF3 cells transfected with wild type p210 BCR-Abl (Homo sapiens, UniProt P00519).
T4 construct: fused on or other part: P11274 (Breakpoint cluster region protein)
Kind of experiment: Ba/F3 p210 whole cell proliferation assay. The following applies: 72 hours, Cell Titer Blue; read-out: Whole Cell Antiproliferation IC50, Ba/F3 p210 whole cell proliferation assay. Format: cell-based. How it is done: as §1, §2

Experiment [5] concerns the target T5, C-Met kinase (SEQ ID NO:10) (Homo sapiens, UniProt P08581).
T5 construct: 956-1390, from Invitrogen, catalogue #PV3143; His6 (N-terminal leader MSYYHHHHHH... with TEV and thrombin sites) (N); purchased Invitrogen PV3143
As to the kind of experiment: C-Met kinase (SEQ ID NO:10) assay, pyruvate kinase/lactate dehydrogenase coupled. The settings on record: 0.5 h preincubation, ATP 100 μM; read-out: Biochemical IC50, c-Met Enzyme Assay. How it is done: C-Met Kinase (SEQ ID NO:10) Assay
Activity of C-Met kinase (SEQ ID NO:10) was determined by following the production of ADP from the kinase reaction through coupling with the pyruvate kinase/lactate dehydrogenase system (e.g., Schindler, et al. Science (2000) 289, 1938-1942). In this assay, the oxidation of NADH (thus the decrease at A340 nm) was continuously monitored spectrophometrically. The reaction mixture (100 μl) contained C-Met (c-Met residues; 956-1390, from Invitrogen, catalogue #PV3143, […]), polyE4Y (1 mg/ml), MgCl2 (10 mM), pyruvate kinase (4 units), lactate dehydrogenase (0.7 units), phosphoenol pyruvate (1 mM), and NADH (0.28 mM) in 90 mM Tris buffer containing 0.25 mM DTT, 0.2% octyl-glucoside and 1% DMSO, pH 7.5. Test compounds were incubated with C-Met (SEQ ID NO:10) and other reaction reagents at 22° C. for 0.5 h before ATP (100 μM) was added to start the reaction. The absorption at 340 nm was monitored continuously for 2 hours at 30° C. on Polarstar Optima plate reader (BMG). The reaction rate was calculated using the 1.0 to 2.0 h time frame. Percent inhibition was obtained by comparison of reaction rate with that of a control (i.e. with no test compound). IC50 values were calculated from a series of percent inhibition values determined at a range of inhibitor concentrations using software routines as implemented in the GraphPad Prism software package.

Experiment [6] concerns the target T6, c-Kit kinase (SEQ ID NO:9) (Homo sapiens, UniProt P10721).
T6 construct: contained c-Kit (cKIT residues T544-V976, from ProQinase, 5.4 nM); purchased ProQinase
Kind of experiment: C-Kit kinase (SEQ ID NO:9) assay, pyruvate kinase/lactate dehydrogenase coupled. The following applies: <2 min preincubation, ATP 200 μM; read-out: Biochemical IC50, c-Kit Enzyme Assay. How it is done: C-Kit Kinase (SEQ ID NO:9) Assay
Activity of c-Kit kinase (SEQ ID NO:9) was determined by following the production of ADP from the kinase reaction through coupling with the pyruvate kinase/lactate dehydrogenase system (e.g., Schindler, et al. Science (2000) 289, 1938-1942). In this assay, the oxidation of NADH (thus the decrease at A340 nm) was continuously monitored spectrophometrically. The reaction mixture (100 μl) contained c-Kit (cKIT residues T544-V976, from ProQinase, 5.4 nM), polyE4Y (1 mg/ml), MgCl2 (10 mM), pyruvate kinase (4 units), lactate dehydrogenase (0.7 units), phosphoenol pyruvate (1 mM), and NADH (0.28 mM) in 90 mM Tris buffer containing 0.2% octyl-glucoside and 1% DMSO, pH 7.5. Test compounds were incubated with […] (SEQ ID NO:9) and other reaction reagents at 22° C. for <2 min before ATP (200 μM) was added to start the reaction. The absorption at 340 nm was monitored continuously for 0.5 hours at 30° C. on Polarstar Optima plate reader (BMG). The reaction rate was calculated using the 0 to 0.5 h time frame. Percent inhibition was obtained by comparison of reaction rate with that of a control (i.e. with no test compound). IC50 values were calculated from a series of percent inhibition values determined at a range of inhibitor concentrations using software routines as implemented in the GraphPad Prism software package.

Residue numbers refer to the chain shown, from its start.

One may read the IC50 as the concentration at which inhibition is half-maximal.

T5 sequence (P08581 with tags, fused parts or gaps): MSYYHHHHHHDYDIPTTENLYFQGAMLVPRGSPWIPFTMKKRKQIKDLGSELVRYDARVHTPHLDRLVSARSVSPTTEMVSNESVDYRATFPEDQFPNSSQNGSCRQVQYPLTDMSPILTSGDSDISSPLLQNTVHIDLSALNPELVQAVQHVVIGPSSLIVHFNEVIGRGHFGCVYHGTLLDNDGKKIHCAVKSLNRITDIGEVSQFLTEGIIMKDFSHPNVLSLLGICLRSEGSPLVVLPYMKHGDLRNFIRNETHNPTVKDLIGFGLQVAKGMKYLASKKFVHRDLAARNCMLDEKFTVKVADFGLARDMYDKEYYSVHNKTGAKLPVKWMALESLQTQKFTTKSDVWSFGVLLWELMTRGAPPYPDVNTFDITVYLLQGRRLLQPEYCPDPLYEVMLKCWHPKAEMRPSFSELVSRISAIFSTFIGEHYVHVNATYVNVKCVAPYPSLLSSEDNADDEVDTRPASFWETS
T6 sequence (P10721 with tags, fused parts or gaps): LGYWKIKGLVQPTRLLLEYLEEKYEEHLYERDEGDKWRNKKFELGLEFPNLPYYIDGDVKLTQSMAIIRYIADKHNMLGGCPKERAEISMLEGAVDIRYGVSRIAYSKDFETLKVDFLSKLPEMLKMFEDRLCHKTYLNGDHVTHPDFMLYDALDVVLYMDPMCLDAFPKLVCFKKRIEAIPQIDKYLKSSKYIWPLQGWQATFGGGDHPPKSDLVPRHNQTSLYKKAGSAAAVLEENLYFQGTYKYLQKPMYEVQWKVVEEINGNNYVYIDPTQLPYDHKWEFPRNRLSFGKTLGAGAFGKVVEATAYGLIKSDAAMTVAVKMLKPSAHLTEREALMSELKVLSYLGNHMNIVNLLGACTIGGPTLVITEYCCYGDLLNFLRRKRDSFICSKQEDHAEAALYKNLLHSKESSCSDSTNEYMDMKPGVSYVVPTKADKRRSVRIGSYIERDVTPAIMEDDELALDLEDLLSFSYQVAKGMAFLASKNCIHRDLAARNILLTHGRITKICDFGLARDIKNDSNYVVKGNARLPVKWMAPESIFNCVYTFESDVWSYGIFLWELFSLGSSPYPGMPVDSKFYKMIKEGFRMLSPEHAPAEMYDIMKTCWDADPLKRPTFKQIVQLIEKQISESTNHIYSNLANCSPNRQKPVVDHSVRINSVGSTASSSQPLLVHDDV

With `Cn1cc(-c2cc(Oc3ccc(NC(=O)Nc4ccn(C(C)(C)C)c4)c(F)c3)ccn2)cn1` [Example 30, 1-(1-tert-butyl-1H-pyrrol-3-yl)-3-(2-fluoro-4-(2-(1-methyl-1H-pyrazol-4-yl)pyridin-4-yloxy)phenyl)urea], the IC50 in experiment [1] is < 100 nM; in experiment [3] it was < 100 nM; in experiment [5], < 10 µM. Also, the GI50 in experiment [2] was < 1 µM; in experiment [4], < 100 nM.
Regarding `Cn1cc(-c2cc(Oc3ccc(NC(=O)Nc4noc5ccccc45)c(F)c3)ccn2)cn1` [Example 24, 1-(benzo[d]isoxazol-3-yl)-3-(2-fluoro-4-(2-(1-methyl-1H-pyrazol-4-yl)pyridin-4-yloxy)phenyl)urea], the GI50 in experiment [2] was < 100 µM; in experiment [4] it was < 100 nM. Further, the IC50 in experiment [3] is < 100 nM; in experiment [6], < 100 nM; in experiment [5], < 10 µM.

(Values after patent US8143293B2, “Kinase inhibitors useful for the treatment of myleoprolific diseases and other proliferative diseases” (Deciphera Pharmaceuticals, LLC, priority 2007, dated 2012).)
